Reference: patent US11155517B2, “4-substituted phenylamine derivatives and their use to protect crops by fighting undesired phytopathogenic micoorganisms” (PI INDUSTRIES LTD., priority 2016, dated 2021)
Like-named read-outs stand apart in the source and are kept apart here.

Legend:
[1] = system: Botrytis cinerea; experiment: Botrytis cinerea (gray mold) in vitro test, radial growth on Potato Dextrose Agar; type: cell-based; settings: for inhibition of growth at 300 ppm: 168 h, seven days, 22° C., read-out: % (control) compared to the untreated check (radial growth); for inhibition at 300 ppm: read-out: BOTRCI % inhibition
[2] = system: Septoria lycopersici; experiment: Septoria lycopersici (leaf spot of tomato) in vitro test, radial growth on Potato Dextrose Agar; type: cell-based; settings: 168 h, seven days, 25° C., read-out: % control compared to the untreated check (radial growth)
[3] = system: Fusarium culmorum; experiment: Fusarium culmorum (foot rot of cereals) in vitro test, radial growth on Potato Dextrose Agar; type: cell-based; settings: Fusarium culmorum; for inhibition of growth at 300 ppm: 168 h, read-out: % control compared to the untreated check (radial growth); for inhibition at 300 ppm: Table 3 comparison, read-out: FUSACU % inhibition
[4] = system: Alternaria solani; experiment: Alternaria solani (early blight of tomato/potato) in vitro test, radial growth on Potato Dextrose Agar; type: cell-based; settings: for inhibition of growth at 300 ppm: 168 h, seven days, 25° C., read-out: % control compared to the untreated check (radial growth); for inhibition at 300 ppm: Table 3 comparison, read-out: ALTESO % inhibition
[5] = system: Rhizoctonia solani; experiment: Rhizoctonia solani (rice sheath blight/potato black scurf) in vitro test, radial growth on Potato Dextrose Agar; type: cell-based; settings: for inhibition of growth at 300 ppm: 168 h, seven days, 25° C., read-out: % control compared to the untreated check (radial growth); for inhibition at 300 ppm: Table 3 comparison, read-out: RHIZSO % inhibition
[6] = system: Colletotrichum capsici; experiment: Colletotrichum capsici (anthracnose) in vitro test, radial growth on Potato Dextrose Agar; type: cell-based; settings: Colletotrichum truncatum; for inhibition of growth at 300 ppm: 168 h, seven days, 25° C., read-out: % control compared to the untreated check (radial growth); for inhibition at 300 ppm: Table 3 comparison, read-out: COLLCA % inhibition
[7] = system: Corynespora cassicola; experiment: Table 3 comparative % inhibition, Corynespora cassicola (CORYCA); type: cell-based; settings: Table 3 comparison
[8] = system: Botrytis cinera; experiment: Greenhouse Botrytis cinera test in tomato, preventive; type: in vivo; settings: 24 h, plants sprayed one day before inoculation, read-out: Efficacy (% control), disease severity vs untreated check
[9] = system: Pyricularia oryzae; experiment: microbe, parasite or virus in culture; type: cell-based; settings: for inhibition of growth at 300 ppm: 168 h, read-out: % control compared to the untreated check (radial growth); for inhibition at 300 ppm: read-out: PYRIOR % inhibition
[10] = system: Fusarium culmorum; experiment: Greenhouse Fusarium culmorum test in wheat, preventive; type: in vivo; settings: 24 h, read-out: Efficacy (% control), disease severity vs untreated check
Method: Compounds were dissolved in 2% DMSO/Acetone & then mixed with water to calibrated spray volume of 50 ml. This 50 ml spray solution was poured into the spray bottles for further applications.
To test the preventive activity of compounds, healthy young wheat plants raised in the greenhouse were sprayed with active compound preparation at the stated application rates inside the spray cabinets using hallowcone nozzles. One day after treatment, the plants were inoculated with spore suspension (2% Malt) containing 2×10^6 Fusarium culmorum inoculum. The inoculated plants were then kept in greenhouse chamber at 24° C. temperature and 80-90% relative humidity for disease expression.
A visual assessment of compound's performance was carried by rating the disease severity (0-100% scale) on treated plants on 3, 7, 10 and 15 days after application. Efficacy (% control) of the compounds was calculated by comparing the disease rating in the treatment with untreated control. The sprayed plants were also assessed for compound's phytotoxic effects by recording symptoms like necrosis, chlorosis and stunting.

[11] = system: Alternaria solani; experiment: Greenhouse Alternaria solani test in tomato, preventive; type: in vivo; settings: 24 h, tomato plants sprayed one day before inoculation, read-out: Efficacy (% control), disease severity vs untreated check
Method: Compounds were dissolved in 2% DMSO/Acetone & then mixed with water to calibrated spray volume of 50 ml. This 50 ml spray solution was poured into the spray bottles for further applications. To test the preventive activity of compounds, healthy young Tomato plants raised in the greenhouse were sprayed with active compound preparation at the stated application rates inside the spray cabinets using hallowcone nozzles. One day after treatment, the plants were inoculated with spore suspension (2% Malt) containing 0.24×10^6 Alternaria solani inoculum. The inoculated plants were then kept in greenhouse chamber at 22-24° C. temperature and 90-95% relative humidity for disease expression. […] Efficacy (% control) of the compounds was calculated by comparing the disease rating in the treatment with untreated control. The sprayed plants were also assessed for compound's phytotoxic effects by recording symptoms like necrosis, chlorosis and stunting.

[12] = system: Pyricularia oryzae; experiment: whole plant or invertebrate; type: in vivo; settings: 24 h, read-out: Efficacy (% control), disease severity vs untreated check
[13] = Dose 300 ppm, Table 3 comparison

CCN(C)C=Nc1cc(C)c(Cc2ccccc2F)cc1C [Compound 15, N-ethyl-N′-(4-(2-fluorobenzyl)-2,5-dimethylphenyl)-N-methylformimidamide]
inhibition of growth at 300 ppm [1]: > 80%
inhibition at 300 ppm [1, 13]: 100%
inhibition of growth at 300 ppm [2]: > 70%
inhibition of growth at 300 ppm [3]: 75%
inhibition at 300 ppm [3]: 100%
inhibition of growth at 300 ppm [4]: > 75%
inhibition at 300 ppm [4]: 100%
inhibition of growth at 300 ppm [5]: > 80%
inhibition at 300 ppm [5]: 100%
inhibition of growth at 300 ppm [6]: > 80%
inhibition at 300 ppm [6]: 100%
inhibition at 300 ppm [7]: 100%
pest or weed control at 500 ppm [8]: 70 to 100%
inhibition of growth at 300 ppm [9]: > 75%
inhibition at 300 ppm [9]: 100%

CCN(C)C=Nc1cc(C)c(Cc2ccccc2F)cc1Cl [Compound 16, N′-(2-chloro-4-(2-fluorobenzyl)-5-methylphenyl)-N-ethyl-N-methylformimidamide]
inhibition of growth at 300 ppm [1]: > 80%
inhibition at 300 ppm [1, 13]: 100%
inhibition of growth at 300 ppm [2]: > 70%
inhibition of growth at 300 ppm [3]: 75%
inhibition at 300 ppm [3]: 100%
inhibition of growth at 300 ppm [4]: > 75%
inhibition at 300 ppm [4]: 100%
inhibition of growth at 300 ppm [5]: > 80%
inhibition at 300 ppm [5]: 100%
inhibition of growth at 300 ppm [6]: > 80%
inhibition at 300 ppm [6]: 100%
pest or weed control at 500 ppm [10]: 70 to 100%
inhibition at 300 ppm [7]: 100%
inhibition of growth at 300 ppm [9]: > 75%
inhibition at 300 ppm [9]: 100%

CCN(C)C=Nc1cc(C)c(Cc2ccc(C#N)cc2)cc1C [Compound 48, N′-(4-(4-cyanobenzyl)-2,5-dimethylphenyl)-N-ethyl-N-methylformimidamide]
inhibition of growth at 300 ppm [1]: > 80%
inhibition of growth at 300 ppm [2]: > 70%
inhibition of growth at 300 ppm [3]: 75%
inhibition of growth at 300 ppm [4]: > 75%
pest or weed control at 500 ppm [11]: 70 to 100%
inhibition of growth at 300 ppm [5]: > 80%
inhibition of growth at 300 ppm [6]: > 80%
pest or weed control at 500 ppm [12]: 70 to 100%
inhibition of growth at 300 ppm [9]: > 75%

CCN(C)C=Nc1cc(C)c(Cc2ccccc2)cc1Cl [Compound 74, N′-(4-benzyl-2-chloro-5-methylphenyl)-N-ethyl-N-methylformimidamide]
inhibition of growth at 300 ppm [1]: > 80%
inhibition at 300 ppm [1]: 94.5%
inhibition of growth at 300 ppm [2]: > 70%
inhibition of growth at 300 ppm [3]: 75%
inhibition at 300 ppm [3]: 94.5%
inhibition of growth at 300 ppm [4]: > 75%
inhibition at 300 ppm [4]: 100%
inhibition of growth at 300 ppm [5]: > 80%
inhibition at 300 ppm [5]: 100%
inhibition of growth at 300 ppm [6]: > 80%
inhibition at 300 ppm [6]: 100%
inhibition at 300 ppm [7]: 71.2%
inhibition of growth at 300 ppm [9]: > 75%
inhibition at 300 ppm [9]: 100%

CCN(C)C=Nc1cc(C)c(Cc2ccccc2C(F)(F)F)cc1C [Compound 93, N′-(2,5-dimethyl-4-(2-(trifluoromethyl)benzyl)phenyl)-N-ethyl-N-methylformimidamide]
inhibition of growth at 300 ppm [1]: > 80%
inhibition of growth at 300 ppm [2]: > 70%
inhibition of growth at 300 ppm [3]: 75%
inhibition of growth at 300 ppm [4]: > 75%
inhibition of growth at 300 ppm [5]: > 80%
inhibition of growth at 300 ppm [6]: > 80%
pest or weed control at 500 ppm [12]: 70 to 100%
inhibition of growth at 300 ppm [9]: > 75%

CCN(C)C=Nc1cc(C)c(Cc2ccc(C(F)(F)F)cc2)cc1C [Compound 94, N′-(2,5-dimethyl-4-(4-(trifluoromethyl)benzyl)phenyl)-N-ethyl-N-methylformimidamide]
inhibition of growth at 300 ppm [1]: > 80%
inhibition of growth at 300 ppm [2]: > 70%
inhibition of growth at 300 ppm [3]: 75%
inhibition of growth at 300 ppm [4]: > 75%
inhibition of growth at 300 ppm [5]: > 80%
inhibition of growth at 300 ppm [6]: > 80%
pest or weed control at 500 ppm [8]: 70 to 100%
pest or weed control at 500 ppm [12]: 70 to 100%
inhibition of growth at 300 ppm [9]: > 75%

CCN(C)C=Nc1cc(C)c(Cc2cc(C(F)(F)F)cc(C(F)(F)F)c2)cc1Cl [Compound 96, N′-(4-(3,5-bis(trifluoromethyl)benzyl)-2-chloro-5-methylphenyl)-N-ethyl-N-methylformimidamide]
inhibition of growth at 300 ppm [4]: > 75%
pest or weed control at 500 ppm [10]: 70 to 100%
pest or weed control at 500 ppm [12]: 70 to 100%

CCN(C)C=Nc1cc(C)c(Cc2ccccc2C(F)(F)F)cc1Cl [Compound 103, N′-(2-chloro-5-methyl-4-(2-(trifluoromethyl)benzyl)phenyl)-N-ethyl-N-methylformimidamide]
inhibition of growth at 300 ppm [1]: > 80%
inhibition of growth at 300 ppm [4]: > 75%
inhibition of growth at 300 ppm [5]: > 80%
inhibition of growth at 300 ppm [6]: > 80%
pest or weed control at 500 ppm [8]: 70 to 100%
pest or weed control at 500 ppm [12]: 70 to 100%
inhibition of growth at 300 ppm [9]: > 75%

CCN(C)C=Nc1cc(C)c(Cc2ccc(F)cc2Cl)cc1C [Compound 110, N′-(4-(2-chloro-4-fluorobenzyl)-2,5-dimethylphenyl)-N-ethyl-N-methylformimidamide]
inhibition of growth at 300 ppm [1]: > 80%
inhibition of growth at 300 ppm [2]: > 70%
inhibition of growth at 300 ppm [3]: 75%
inhibition of growth at 300 ppm [4]: > 75%
inhibition of growth at 300 ppm [5]: > 80%
inhibition of growth at 300 ppm [6]: > 80%
pest or weed control at 500 ppm [12]: 70 to 100%
inhibition of growth at 300 ppm [9]: > 75%

CCN(C)C=Nc1cc(C)c(Cc2cccc(Cl)c2Cl)cc1C [Compound 133, N′-(4-(2,3-dichlorobenzyl)-2,5-dimethylphenyl)-N-ethyl-N-methylformimidamide]
inhibition of growth at 300 ppm [1]: > 80%
inhibition of growth at 300 ppm [2]: > 70%
inhibition of growth at 300 ppm [4]: > 75%
inhibition of growth at 300 ppm [5]: > 80%
inhibition of growth at 300 ppm [6]: > 80%
pest or weed control at 500 ppm [8]: 70 to 100%
pest or weed control at 500 ppm [12]: 70 to 100%
inhibition of growth at 300 ppm [9]: > 75%

CCN(C)C=Nc1cc(Cl)c(Cc2ccccc2F)cc1Cl [Compound 149, N′-(2,5-dichloro-4-(2-fluorobenzyl)phenyl)-N-ethyl-N-methylformimidamide]
inhibition of growth at 300 ppm [1]: > 80%
inhibition of growth at 300 ppm [4]: > 75%
pest or weed control at 500 ppm [10]: 70 to 100%
pest or weed control at 500 ppm [12]: 70 to 100%
inhibition of growth at 300 ppm [9]: > 75%

CCN(C)C=Nc1cc(Cl)c(Cc2cccc(C(F)(F)F)c2)cc1Cl [Compound 183, N′-(2,5-dichloro-4-(3-(trifluoromethyl)benzyl)phenyl)-N-ethyl-N-methylformimidamide]
inhibition of growth at 300 ppm [1]: > 80%
inhibition of growth at 300 ppm [5]: > 80%
pest or weed control at 500 ppm [10]: 70 to 100%
pest or weed control at 500 ppm [12]: 70 to 100%
inhibition of growth at 300 ppm [9]: > 75%

Cc1cc(C(C#N)c2cccc(C(F)(F)F)c2)c(C)cc1N=CN(C)C (stereo not drawn) [N′-(4-(cyano(3-(trifluoromethyl)phenyl)methyl)-2,5-dimethylphenyl)-N,N-dimethylformimidamide, reference compound]
inhibition at 300 ppm [1, 13]: 77.3%
inhibition at 300 ppm [3]: 0%
inhibition at 300 ppm [4]: 79.8%
inhibition at 300 ppm [5]: 80.9%
inhibition at 300 ppm [6]: 41.3%
inhibition at 300 ppm [7]: 58.7%
inhibition at 300 ppm [9]: 100%

CCN(C)C=Nc1cc(C)c(C(C#N)c2cccc(C(F)(F)F)c2)cc1C (stereo not drawn) [N′-(4-(cyano(3-(trifluoromethyl)phenyl)methyl)-2,5-dimethylphenyl)-N-ethyl-N-methylformimidamide]
inhibition at 300 ppm [1, 13]: 100%
inhibition at 300 ppm [3]: 0%
inhibition at 300 ppm [4]: 100%
inhibition at 300 ppm [5]: 100%
inhibition at 300 ppm [6]: 100%
inhibition at 300 ppm [7]: 64.4%
inhibition at 300 ppm [9]: 100%
